Here are results for 1 substance from US11466054B2, “Inhibitors of metastasis” (BIOMARCK PHARMACEUTICALS LTD., priority 2013, dated 2022).

Where no end group is shown, it is not given here. The star is where a group is joined. Myristoyl = CCCCCCCCCCCCCC(=O)*

The subject of test [1] is A549. Briefly: Transwell migration assay, A549 cells. It counts as cell-based, human. The note with it: A549, 50 μm, 12 hr. How it is done:
The human adenocarcinoma-derived alveolar epithelial cell line A549 (an invasive cell line) was obtained from the American Type Culture Collection (ATCC) and was cultured in RPMI-1640 supplemented with 10% fetal bovine serum and 100 U/ml penicillin/streptomycin, in 75 cm^2 tissue culture flasks. The cells reached confluence by the third day of culture at 37° C. in an atmosphere of 95% air and 5% CO2 and were maintained by serial passage.
The test peptides (MANS, RNS, BIO-11006, BIO-11000, BIO-11002, BIO-91200, and BIO-10901) were dissolved in PBS at a pH of 7.0; slow vortex mixing for about two hours aided solubility.
Transwell plates (24-well, […]; Costar, Cambridge, Mass., USA) were used to conduct the migration assay. The lower chambers of the transwell plates were filled with 600 μl of basal medium containing 10% FBS. The cells (1×10^5) were suspended in 100 μl of basal medium containing 1% BSA and added to the upper chamber, and the plates incubated at 37° C. with 5% CO2 for 12 hr in PBS (control), or the indicated test peptides at 10, 25 or 50 μM. The cells on the upper surface of the filters were removed using cotton swabs. The cells that migrated to the lower surface of the filters were washed, fixed, and stained with hematoxylin and counted under the microscope. The percent change in migration is determined by counting the number of cells that migrated to the lower surface of the filters. At least four separate microscopic fields are counted per membrane, with a total of three replicate experiments at each concentration. The statistics software “Prizm” was used for data analysis.

The test system of test [2] is CL1-5 cells. Briefly: Transwell migration assay, CL1-5 cells pretreated with peptide.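 On migration index: index equals control cell count divided by treated cell count.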 It counts as cell-based, human. The conditions noted are these: 12 hours; for cell number: control approximately 105. How it is done:
CL1-5 cells, an aggressively metastatic cell line derived from a human adenocarcinoma, were cultured in RPMI 1640 media with 10% FBS, 37° C. at 95% […]/5% CO2 until ready for use. Transwell plates (24-well, 8-um pore size; Costar, Cambridge, Mass., USA) were used to conduct the migration assay. The lower chambers of the Transwell plates were filled with 600 μl of basal media containing 10% FBS. The cells (1×10^5) were pretreated with 50 or 100 μM of the indicated test peptide for 30 min, and then suspended in 100 μl of basal media containing 1% BSA and added to the upper chamber, and the cells then were incubated at 37° C. for 12 hr. The cells on the upper surface of the filters were removed using cotton swabs, and the cells that migrated to the lower surface of the filters were washed, fixed, and stained with hematoxylin and counted under the microscope. The percent change in migration was determined by counting the number of cells that migrated to the lower surface of the filters. At least 3 separate microscopic fields were counted per membrane (n=4).
Primary CL1-5 cells originated from human adenocarcinoma lung cancer Transwell plates with 24-wells, 8-μ pore size (Costar, Cambridge, Mass., USA) were used to conduct the migration assay. The lower chambers of the transwell plates were filled with 600 μL of basal media containing 10% FBS. The cells (1-2×10^5) were suspended in 100 μL of basal media containing 1% BSA. The test peptide at desired concentration was added to the upper chamber directly or after preincubation with cancer cells. The plates were then incubated at 37° C. for 12 hours. The cells on the upper surface of the filters were removed using cotton swabs. The cells that migrated to the lower surface of the filters were washed, fixed, and stained with hematoxylin and counted under the microscope. At least five separate microscopic fields are counted per membrane (n=3). The percent change in migration was determined by counting the number of cells that migrated to the lower surface of the filters.
The count means the actual number of cells which migrated to the lower chamber and counted by a light microscope at 40× magnification, presented as the mean number of cells in 10 randomly chosen fields for each treatment.
The “index” was calculated by dividing the number of cells that migrated in the presence of peptides by the number of cells that migrated randomly (control group). […]. This calculation can reflect the extent that the migration of cells was blocked by 30 minute pretreatment with MANS-related peptides.

In test [3] the test system is PC-9 cells. In words: Orthotopic lung injection xenograph model, PC-9 cells in nude mice. The note with it: 50 nmoles i.p. once every three days, 25 days. It counts as in vivo. How it is done: The metastatic activity of cancer cells in vivo after treatment with MANS peptide or BIO-11006 was assessed in the orthotopic lung injection xenograph model. After pretreatment with either PBS, or PBS+MANS, BIO-11006 (SEQ ID NO: 106), or the control RNS peptide at 100 μM for 4 hours, PC-9 cells were injected into the left lobe of the lung of nude mice. Seven days later, these mice were given systemic treatment with either PBS only (Con), RNS (additional control peptide), MANS or BIO-11006 at 50 nmoles per intraperitoneal injection once every three days. At 25 days (6 injections) post-seeding of these tumor cells, mice were sacrificed and the number of metastasized tumor nodules in the contralateral lung and other organs was counted.

Test [4] concerns A549 cells. In words: Anti-metastatic efficacy in SCID mice given A549 cells via the tail vein. It counts as in vivo. The note with it: Day 53; for No. of metastatic nodules in lungs Mean ± SEM: aerosol 100 μM every other day for 7 weeks. How it is done: Female NOD.CB17-Prkdc^scid/NCrHsd, Mus musculus mice (Harlan, The Netherlands), housed in individually ventilated cages, were randomized into six groups of eight mice each. A549 cells (2.5×10^6) were injected into the mice via the tail vein. The control group received aerosolized vehicle PBS; while the groups 2 and 3 received the aerosolized test compound BIO-11006 either from −1 day before the cancer cells injection (group 2) or from +3 days after the cancer cell injection (group 3) on every other day for 7 weeks via nebulizer (Aeroneb Lab). Groups 4 and 5 received the aerosolized test compound MANS peptide either from −1 day before the cancer cell line injection (group 4) or from +3 days after the cell line injection (group 5) on every other day for 7 weeks via a nebulizer (Aeroneb Lab). For aerosol delivery, solution of each test compound (100 μM) was prepared in PBS, pH 7.0. For each treatment, 5 mL of test compound solution was aerosolized over 30 minutes into a chamber containing four mice at a time. The mice were monitored for body weight every other day for 7 weeks.
One group of mice (n=7) served as normal control. These were untreated naïve mice used to monitor the health status of mice during the study period. All animals from all groups were sacrificed on Day 53. FIG. 15 compares number of metastatic nodules in lungs after respective administration of BIO-11006 and MANS peptide on Day 53 following A549 cell injection. […] There were few focal tumor nodules in ⅞ of mice treated with BIO-11006 peptide starting at either Day −1 or Day +3 relative to A549 cell injection.

Take “N-myristoyl-GAQFSKTAAKGEAAAERPGEAAVA (Myristoyl-GAQFSKTAAKGEAAAERPGEAAVA; listed as Homo sapiens) [MANS peptide]”: the “migration index numbers relative to control and to RNS peptide” value in test [1] is “increased migration index numbers”. In addition, in test [1] (FIG. 11), the “migrated cell numbers relative to control and to RNS peptide” value was “decreased migrated cell numbers”. The cell number entry is given as “approximately 45” in test [2] (CL1-5, 50 μmolar pretreatment, FIG. 9) and “approximately 35” in test [2] (CL1-5, 100 μmolar pretreatment, FIG. 10). Moreover, the migration index result in test [2] (CL1-5, 50 μmolar pretreatment, FIG. 9, control=1.0) is recorded as “approximately 2.5”; in test [2] (CL1-5, 50 μmolar, FIG. 8A, control=1, higher value signifies less migration) it was “approximately 2.5”; in test [2] (CL1-5, 100 μmolar pretreatment, FIG. 10, control=1.0) it was “approximately 3.5”; in test [2] (CL1-5, 100 μmolar, FIG. 8B, control=1, higher value signifies less migration) it was “approximately 4.3”. For the same substance, the migrated cell numbers result in test [2] (CL1-5, pretreatment at 50 μmolar, FIG. 7A) is reported as “approximately 40”; in test [2] (CL1-5, pretreatment at 100 μmolar, FIG. 7B), “approximately 20”. Moreover, the “Metastases (affected mice/total mice) Diaphragm” value in test [3] was 0/4. In addition, in test [3], the “Metastases (affected mice/total mice) Heart” value was 0/4. Moreover, the “Metastases (affected mice/total mice) Intestines” value in test [3] was 0/4. Moreover, the “Metastases (affected mice/total mice) Spleen” value in test [3] is on record as 0/4. Also, the “No. of Metastatic Lung Tumors Mean ± SE (L't)” value in test [3] (left lung) is 0; 0. Further, the “No. of Metastatic Lung Tumors Mean ± SE (R't)” value in test [3] (right lung) was 0; 0. In test [3] (tumor at site of injection, cells pretreated 100 μM 4 hours), the “Tumor Size (mm) Mean ± SE” value came to 1.48 ± 0.54 mm. The “animals with few focal tumor nodules” value is reported as “Few focal tumor nodules in 7/8” in test [4] (+3 Day treatment group) and “Few focal tumor nodules in 4/8” in test [4] (−1 Day treatment group). Moreover, the distant metastasis entry in test [4] (+3 Day treatment group) and in test [4] (−1 Day treatment group) was “No distant metastasis” throughout. Further, the results for the “No. of metastatic nodules in lungs Mean ± SEM” value in test [4] (+3 Day treatment group) and in test [4] (−1 Day treatment group) were 13 ± 4 and 22 ± 7, respectively.
